Experimental data from paper PMC8617031, “Development of a BCL-xL and BCL-2 dual degrader with improved anti-leukemic activity,” (Nature Communications, 2021).
Values joined by “and” are separate entries in the source; they are usually repeats but may differ in a detail not shown here. Equal values may be shown once.

Experiments:
[1] = target: T1, His-tagged BCL-xL (Homo sapiens, UniProt Q07817); assay: AlphaScreen competitive binary binding, BCL-xL (biotin-BAD peptide)
T1 construct: purchased Sigma-Aldrich SRP0187
Procedure: (§1) The reagents were diluted in a buffer containing 250 mM HEPES pH 7.5, 1 M NaCl, 1% BSA, and 0.05% Tween-80. His-tagged BCL-xL (0.5 nM, Cat. No. SRP0187, Sigma-Aldrich) or BCL-2 (1 nM, Cat. No. SRP0186, Sigma-Aldrich) were incubated with serial diluted 753a or 753b and 2 nM biotin-tagged BAD (biotin-[…] amino-terminal, AnaSpec, for BCL-xL) or 10 nM BIM peptides (biotin-[…] N-terminal, AnaSpec, for BCL-2) to a final volume of 40 µl in a 96-well PCR plate. […] After incubation for 2 h, 5 µl 6× His-acceptor beads (Cat. No. AL128M, PerkinElmer) were added to each well at 20 µg/ml final concentration and incubated for 1 h. Then 5 µl streptavidin-donor beads were added (Cat. No. 6760002, PerkinElmer) to each well at 20 µg/ml final concentration and incubated for 45 min. At the end of the incubation period, 17 µl of each sample was transferred in adjacent wells of 384-well proxy plate (Cat. No. 6008280, PerkinElmer). The plate was scanned using the Alpha program on Biotek’s Synergy Neo2 multimode plate reader. The inhibition constant (Ki) was calculated using the non-linear regression, one site, competitive binding, Fit Ki function on GraphPad Prism 9 software, based on experimentally determined dissociation constant (Kd) for each protein–peptide pair.

[2] = target: T2, His-tagged BCL-2 (Homo sapiens, UniProt P10415); assay: AlphaScreen competitive binary binding, BCL-2 (biotin-BIM peptide)
T2 construct: purchased Sigma-Aldrich SRP0186
Procedure: as §1

[3] = system: Kasumi-1 cells; assay: Viability (MTS) of Kasumi-1 AML cells; assay type: cell-based, human; details: Kasumi, 24h, Fig. 7c
[4] = system: 293T cells; assay: Viability (MTS) of 293T cells; assay type: cell-based, human; details: normalised to own plate; for 293T cell viability, MTS absorbance 490 as percent of untreated control, mean of three wells: mean of 3 wells
Procedure: Suspension cells were treated 30 min after seeding, whereas adherent cells were allowed to adhere overnight and were then treated. Compound treatments were prepared in complete cell culture medium and 100 µl of 2× treatment-containing medium were added to each well. Complete cell culture medium without treatment was added in control wells, and wells containing medium without cells served as background. The outer wells of the 96-well plate were not used for treatment and were filled with 250 µl of PBS to reduce evaporation of medium from inner wells. Each compound and/or combination was tested at nine different concentrations with three replicates. The cell viability was measured after 72 h by tetrazolium-based MTS assay. MTS reagent (2 mg ml^–1 stock; cat. no. G1111, Promega) was freshly supplemented with phenazine methosulfate (PMS, 0.92 mg ml^–1 stock, cat. no. P9625, Sigma-Aldrich) in 20:1 ratio, and 20 µl of this mixture was added to each control and treatment well. The cells were incubated for 4 h at 37 °C and 5% CO2, and then the absorbance was recorded at 490 nm using Biotek’s Synergy Neo2 multimode plate reader (Biotek). The average absorbance value of background wells was subtracted from absorbance value of each control and treatment well, and percent cell viability ((At/A0) × 100)) was determined in each treatment well, where At is the absorbance value of the treatment well and A0 is the average absorbance value of control wells after background subtraction. The data were expressed as average percentage cell viability and fitted in non-linear regression curves using GraphPad Prism 7 (GraphPad Software, La Jolla, CA, USA).

[5] = AlphaScreen, Supplementary Fig. 6

T1 sequence (Q07817 whole entry): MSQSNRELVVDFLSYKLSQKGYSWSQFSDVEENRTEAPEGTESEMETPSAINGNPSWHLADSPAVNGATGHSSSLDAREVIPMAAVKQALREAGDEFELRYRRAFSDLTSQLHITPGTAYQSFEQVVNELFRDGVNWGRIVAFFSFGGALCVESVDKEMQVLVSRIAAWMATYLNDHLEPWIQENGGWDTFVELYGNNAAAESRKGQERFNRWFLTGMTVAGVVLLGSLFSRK
T2 sequence (P10415 whole entry): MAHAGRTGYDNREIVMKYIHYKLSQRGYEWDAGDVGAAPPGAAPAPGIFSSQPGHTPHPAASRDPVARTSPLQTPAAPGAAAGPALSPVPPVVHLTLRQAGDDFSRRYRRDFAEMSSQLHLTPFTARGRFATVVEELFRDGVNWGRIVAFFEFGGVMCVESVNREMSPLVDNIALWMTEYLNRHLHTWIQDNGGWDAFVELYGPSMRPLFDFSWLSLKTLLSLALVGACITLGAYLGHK

Cc1ncsc1-c1ccc([C@H](C)NC(=O)[C@@H]2C[C@@H](O)CN2C(=O)[C@@H](NC(=O)CCCCCCC(=O)N2CCN(C[C@]3(C)CCC(c4ccc(Cl)cc4)=C(CN4CCN(c5ccc(C(=O)NS(=O)(=O)c6ccc(N[C@H](CCN7CCOCC7)CSc7ccccc7)c(S(=O)(=O)C(F)(F)F)c6)cc5)CC4)C3)CC2)C(C)(C)C)cc1 [753b]
binary binding affinity to BCL-xL (in words) [1, 5]: much weaker than that of the warhead ABT263 | IC50 ([1]; BCL-xL Rep-1): 25.6 nM | Ki ([1]; BCL-xL Rep-1): 1.15 nM | Alpha signal (raw counts) ([1]; BCL-xL Rep-1, plate row B, 5 uM): 34683 and 41080 | Alpha signal (raw counts) ([1]; BCL-xL Rep-1, plate row D, 0.3125 uM): 104729 and 120739 | Alpha signal (raw counts) ([1]; BCL-xL Rep-1, plate row E, 0.078125 uM): 342247 and 341354 | Alpha signal (raw counts) ([1]; BCL-xL Rep-1, plate row F, 0.0195312 uM): 676907 and 757834 | Alpha signal (raw counts) ([1]; BCL-xL Rep-1, plate row G, 0.00488281 uM): 979745 and 1069221 | Alpha signal (raw counts) ([1]; BCL-xL Rep-1, plate row H, 0.0012207 uM): 1220627 and 1147140 | Alpha signal (raw counts) ([1]; BCL-xL Rep-1, plate row I, 0.000305176 uM): 1208908 and 1239363 | Alpha signal (raw counts) ([1]; BCL-xL Rep-1, plate row J, 7.62939e-5 uM): 1272719 and 1257225 | Alpha signal (raw counts) ([1]; BCL-xL Rep-1, plate row K, 1.90735e-5 uM): 1178982 and 1221697 | Alpha signal (raw counts) ([1]; BCL-xL Rep-2, 7.62939e-5 uM): 1287481 and 1327839 | Alpha signal (raw counts) ([1]; BCL-xL Rep-2, plate row B, 5 uM): 27681 and 27423 | Alpha signal (raw counts) ([1]; BCL-xL Rep-2, plate row C, 1.25 uM): 19946 and 33165 | Alpha signal (raw counts) ([1]; BCL-xL Rep-2, plate row D, 0.3125 uM): 104103 and 115603 | Alpha signal (raw counts) ([1]; BCL-xL Rep-2, plate row E, 0.078125 uM): 336015 and 412856 | Alpha signal (raw counts) ([1]; BCL-xL Rep-2, plate row F, 0.0195312 uM): 814066 and 879407 | Alpha signal (raw counts) ([1]; BCL-xL Rep-2, plate row G, 0.00488281 uM): 1170961 and 1327234 | Alpha signal (raw counts) ([1]; BCL-xL Rep-2, plate row H, 0.0012207 uM): 1347085 and 1401728 | Alpha signal (raw counts) ([1]; BCL-xL Rep-2, plate row I, 0.000305176 uM): 1445114 and 1473085 | Alpha signal (raw counts) ([1]; BCL-xL Rep-2, plate row K, 1.90735e-5 uM): 1348563 and 1319629 | Ki ([1]; BCL-xL, mean of the two replicate values (line without label)): 1.31 nM | Ki ([1]; BCL-xL, second value (line without label below Rep-1, apparently Rep-2)): 1.48 nM | binary binding affinity to BCL-2 (in words) [2, 5]: much weaker than that of the warhead ABT263 | Alpha signal (raw counts) ([2]; BCL-2 Rep-2, 0.00488281 uM): 394963 and 403008 | Alpha signal (raw counts) ([2]; BCL-2 Rep-2, plate row B, 5 uM): 11331 and 13334 | Alpha signal (raw counts) ([2]; BCL-2 Rep-2, plate row C, 1.25 uM): 13467 and 22674 | Alpha signal (raw counts) ([2]; BCL-2 Rep-2, plate row D, 0.3125 uM): 16676 and 24219 | Alpha signal (raw counts) ([2]; BCL-2 Rep-2, plate row E, 0.078125 uM): 24600 and 21594 | Alpha signal (raw counts) ([2]; BCL-2 Rep-2, plate row F, 0.0195312 uM): 68045 | Alpha signal (raw counts) ([2]; BCL-2 Rep-2, plate row F, 0.0195312 uM, listed as 753B): 74511 | Alpha signal (raw counts) ([2]; BCL-2 Rep-2, plate row H, 0.0012207 uM): 630958 and 595808 | Alpha signal (raw counts) ([2]; BCL-2 Rep-2, plate row I, 0.000305176 uM): 751084 and 777257 | Alpha signal (raw counts) ([2]; BCL-2 Rep-2, plate row J, 7.62939e-5 uM): 760517 and 786817 | Alpha signal (raw counts) ([2]; BCL-2 Rep-2, plate row K, 1.90735e-5 uM): 880286 and 989418 | Luminescence (raw plate reading) ([3]; 2um (plate column 11)): 42731 and 33855 and 41105 and 35447 | Luminescence (raw plate reading) ([3]; 4um (plate column 12)): 25069 and 21488 and 20344 and 20760 | 293T cell viability, MTS absorbance 490 as percent of untreated control, mean of three wells ([4]; 0.00137174 uM): 105.831 | 293T cell viability, MTS absorbance 490 as percent of untreated control, single replicate well ([4]; 0.00137174 uM): 104.459 and 107.926 and 105.109 | 293T cell viability, MTS absorbance 490 as percent of untreated control, mean of three wells ([4]; 0.00411523 uM): 107.998 | 293T cell viability, MTS absorbance 490 as percent of untreated control, single replicate well ([4]; 0.00411523 uM): 111.934 and 109.117 and 102.943 | 293T cell viability, MTS absorbance 490 as percent of untreated control, mean of three wells ([4]; 0.037037 uM): 108.72 | 293T cell viability, MTS absorbance 490 as percent of untreated control, single replicate well ([4]; 0.037037 uM): 111.175 and 116.05 and 98.9348 | 293T cell viability, MTS absorbance 490 as percent of untreated control, mean of three wells ([4]; 0.111111 uM): 112.8 | 293T cell viability, MTS absorbance 490 as percent of untreated control, single replicate well ([4]; 0.111111 uM): 120.383 and 115.183 and 102.834 | 293T cell viability, MTS absorbance 490 as percent of untreated control, mean of three wells ([4]; 0.333333 uM): 109.37 | 293T cell viability, MTS absorbance 490 as percent of untreated control, single replicate well ([4]; 0.333333 uM): 118.975 and 109.225 and 99.9097 | 293T cell viability, MTS absorbance 490 as percent of untreated control, mean of three wells ([4]; 1 uM): 114.606 | 293T cell viability, MTS absorbance 490 as percent of untreated control, single replicate well ([4]; 1 uM): 117.133 and 117.566 and 109.117 | 293T cell viability, MTS absorbance 490 as percent of untreated control, mean of three wells ([4]; 3 uM): 79.3284 | 293T cell viability, MTS absorbance 490 as percent of untreated control, single replicate well ([4]; 3 uM): 74.5622 and 86.911 and 76.512
